For series [1], the target named is T1, truncated human 11β-HSD-1 enzyme (24-287AA) (Homo sapiens, UniProt P28845).
T1 construct: truncated human 11β-HSD-1 enzyme (24-287AA); made in house; host or cells: E. coli (crude lysate)
Kind of series: 11β-HSD-1 enzymatic Scintillation Proximity Assay (SPA). Format: biochemical. The method, then:
(§1) The reaction was stopped by adding a non-specific 11β-HSD inhibitor, 18β-glycyrrhetinic acid. The tritiated cortisol was captured by a mixture of an anti-cortisol monoclonal antibody and SPA beads coated with anti-mouse antibodies. The reaction plate was shaken at room temperature and the radioactivity bound to SPA beads was then measured on a β-scintillation counter. The 11-βHSD-1 assay was carried out in 96-well microtiter plates in a total volume of 220 μl. […] In order to drive the reaction in the forward direction, 1 mM G-6-P was also added. Solid compound was dissolved in DMSO to make a 10 mM stock followed by a subsequent 10-fold dilution with 3% DMSO in Tris/EDTA buffer (pH 7.4). […] Reactions were initiated by the addition of 10 μl of 0.1 mg/ml E. coli lysates overexpressing 11β-HSD-1 enzyme. After shaking and incubating plates for 30 minutes at room temperature, reactions were stopped by adding 10 μl of 1 mM glycyrrhetinic acid. The product, tritiated cortisol, was captured by adding 10 μl of […] monoclonal anti-cortisol antibodies and 100 μl SPA beads coated with anti-mouse antibodies. After shaking for 30 minutes, plates were read on a liquid scintillation counter Topcount. Percent inhibition was calculated based on the background and the maximal signal. Wells that contained substrate without compound or enzyme were used as the background, while the wells that contained substrate and enzyme without any compound were considered as maximal signal. Percent of inhibition of each compound was calculated relative to the maximal signal and IC50 curves were generated. This assay was applied to 11β-HSD-2 as well, whereby tritiated cortisol and NAD^+ were used as substrate and cofactor, respectively.
(Scintillation proximity formats need no separation of bound from free tracer.)

Series [2] in a line: Metabolic stability screen, mouse liver microsomes. Type of series: in vitro ADME. Particulars: 10 μM substrate, 30 min incubation, 37° C., 1 mM NADPH. The protocol: (§2) Metabolic stability screen: each substrate (10 μM) was incubated with microsomal protein (0.1-0.5 mg/ml) in 50 mM potassium phosphate buffer (pH 7.4) in 48-Well plate. The enzyme reaction was initiated by the addition of 1 mM NADPH, then incubated at 37° C. in a Form a Scientific incubator (Marietta, Ohio, USA) with gentle shaking. The reactions were quenched by the addition of 800 μl of ACN/MeOH (1:1, v/v), containing 0.5 μM of internal standard (IS), after 30 min incubation. Samples were then filtered by using Captiva 96-Well Filtration (Varian, Lake Forest, Calif., USA) and analyzed by LC/MS (mass spectrometry). Liver microsomal incubations were conducted in duplicate.
(§3) The parent remaining in the incubation mixture was determined by LC/MS. The LC/MS system consisted of an Agilent 1100 series (Agilent Technologies, Waldbronn, Germany) and API 2000 (MDS SCIEX, Ontario, Canada). A Luna C8(2) (50×2.0 mm, particle size 3 μm, Phenomenex, Torrance, Calif., USA) was used to quantify each compound at ambient temperature. The mobile phase consisted of (A): 10 mM NH4AC (pH 3.3) and (B): 100% ACN and was delivered at a flow rate of 0.2 ml/min. Elution was achieved using a linear gradient of 0-100% B over 3 min, then held 100% B for 4 min and returned to 100% A in 1 min. The column was equilibrated for 7 min before the next injection.
(§4) The peak area ratios (each substrate over IS) at each incubation time were expressed as the percentage of the ratios (each substrate over IS) of the control samples (0 min incubation). The parent remaining in the incubation mixture was expressed as the percentage of the values at 0 min incubation. The percentage turnover is calculated using the following equation (% turnover=100% turnover−% parent remaining) and is recorded as the percentage turnover in the Table 2.
In general terms: Liver microsomes are vesicles of endoplasmic reticulum, rich in cytochrome P450 enzymes.

Series [3] in a line: Metabolic stability screen, human liver microsomes. Format: in vitro ADME. Particulars: 10 μM substrate, 30 min incubation, 37° C., 1 mM NADPH. The protocol:
as §2, §3, §4

A further series concerns the target T2, human 11-β-HSD-2 (Homo sapiens, UniProt P80365).
T2 sequence (P80365 1-405): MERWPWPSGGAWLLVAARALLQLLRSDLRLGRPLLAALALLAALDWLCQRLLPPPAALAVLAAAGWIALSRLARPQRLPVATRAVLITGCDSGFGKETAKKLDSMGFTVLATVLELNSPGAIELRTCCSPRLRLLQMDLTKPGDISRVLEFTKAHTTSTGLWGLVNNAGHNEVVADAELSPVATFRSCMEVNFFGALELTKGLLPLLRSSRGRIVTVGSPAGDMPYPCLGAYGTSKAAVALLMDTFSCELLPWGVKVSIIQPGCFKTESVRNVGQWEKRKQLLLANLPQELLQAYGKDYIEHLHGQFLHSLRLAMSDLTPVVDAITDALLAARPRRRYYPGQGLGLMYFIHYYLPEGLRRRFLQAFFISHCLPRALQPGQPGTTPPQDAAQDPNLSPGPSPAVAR
Kind of series: 11β-HSD-2 Scintillation Proximity Assay (tritiated cortisol, NAD+). Format: biochemical. Particulars: human enzyme, SPA. The protocol: as §1

A further series relates to CD-1 mice. Kind of series: 24-hour inhibitory avoidance in mice after subchronic (3 administration) dosing. Particulars: 30 mg/kg PO, BID the day before and one hour before training, vs vehicle control mice. Format: in vivo. The protocol:
Male CD-1 mice were obtained from Charles River, Wilmington, Mass. Mice were group-housed 10 per cage. The body weight upon arrival was 20-25 g. Food and water were available ad libitum except during experiments. Animals were acclimated to the animal facilities for a period of at least one week prior to commencement of experiments. Animals were tested in the light phase of a 12-hour light: 12-hour dark schedule (lights on 0600 hours).
Compound KK and Compound LL were synthesized at Abbott Laboratories. […] Compound KK was administered in a cloudy, fine suspension, while Compound LL was administered in a solution.
On training day, mice were injected with Compound KK, Compound LL or vehicle one-hour PO before training. One hour following injection (start of training) mice were subjected to a training session in which they were placed in a lighted compartment of a two-compartment chamber (Gemini apparatus, San Diego Instruments, San Diego, Calif.) with a manually operated gate separating the compartments. […] Twenty-four hours later mice were again tested in the same apparatus, except without shock, and the transfer latency from the lighted to the dark compartment recorded and used as an index of memory for the punished response 24 hours earlier. […] Data were analyzed using Mann Whitney U comparisons. […]

These results are taken from US8993632B2, “Inhibitors of the 11-beta-hydroxysteroid dehydrogenase type 1 enzyme” (AbbVie Inc., priority 2005, dated 2015).

By IC50 is commonly meant the midpoint of a concentration-inhibition curve. Low readings indicate greater potency in that assay, high ones weaker potency in that assay.

T1 sequence (P28845 24-287): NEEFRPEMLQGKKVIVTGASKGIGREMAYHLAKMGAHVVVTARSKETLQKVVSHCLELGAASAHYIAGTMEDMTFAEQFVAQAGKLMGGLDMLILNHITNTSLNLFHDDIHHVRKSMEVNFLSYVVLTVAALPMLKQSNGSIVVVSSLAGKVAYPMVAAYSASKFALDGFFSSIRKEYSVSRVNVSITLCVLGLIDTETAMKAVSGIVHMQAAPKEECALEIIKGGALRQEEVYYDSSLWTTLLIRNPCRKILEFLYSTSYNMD

Consider `O=C(O)C12CC3CC(C1)C(NC(=O)C1(c4ccccc4)CC1)C(C3)C2` (stereo not shown) [B, E-4-[(1-Phenyl-cyclopropanecarbonyl)-amino]-adamantane-1-carboxylic acid], for which the IC50 in series [1] turned out to be 102 nM. In addition, the “Mouse Liver Microsomal Turnover (%)” value in series [2] is recorded as 0%. Also, the “Human Liver Microsomal Turnover (%)” value in series [3] was 2%.

Turning to `O=C(O)C12CC3CC(C1)C(NC(=O)C1(c4ccc(Cl)cc4)CCC1)C(C3)C2` (stereo not shown) [Compound A, E-4-{[1-(4-Chloro-phenyl)-cyclobutanecarbonyl]-amino}-adamantane-1-carboxylic acid], the IC50 against human 11-β-HSD-2 was above 10000 nM; in series [1], 43 nM. For the same compound, in series [2], the “Mouse Liver Microsomal Turnover (%)” value came to 5%. In addition, the “Human Liver Microsomal Turnover (%)” value in series [3] was 5%.

As to `Cc1ccccc1CN1CCCC(C)(C(=O)NC2C3CC4CC2CC(C(N)=O)(C4)C3)C1=O` (stereo not shown) [Compound AA], the “memory retention (transfer latency), FIG. 3” value in the series on CD-1 mice is on record as “significant improvement in memory retention”.

Take `O=C(NC1C2CC3CC(C2)CC1C3)C1(c2ccccc2)CC1` (stereo not shown) [F, N-2-adamantyl-1-phenylcyclopropanecarboxamide]: in series [3], the “Human Liver Microsomal Turnover (%)” value turned out to be 62%.

Regarding `NC(=O)C12CC3CC(C1)C(NC(=O)C1(c4ccc(Cl)cc4)CCC1)C(C3)C2` (stereo not shown) [D, E-4-{[1-(4-Chloro-phenyl)-cyclobutanecarbonyl]-amino}-adamantane-1-carboxylic acid amide], in series [3], the “Human Liver Microsomal Turnover (%)” value is given as 10%.

Take `CC1(C(=O)N[C@@H]2[C@@H]3C[C@@H]4C[C@H]2C[C@@](C(N)=O)(C4)C3)CCN(Cc2ccccc2)C1=O` (stereo partly shown) [BB]: in the series with CD-1 mice, the “memory retention (transfer latency), FIG. 3” value is “significant improvement in memory retention”.

Consider `CC(C)(C(=O)NC1C2CC3CC(C2)CC1C3)c1ccccc1` (stereo not shown) [E, N-2-adamantyl-2-methyl-2-phenylpropanamide], for which the “Human Liver Microsomal Turnover (%)” value in series [3] was found to be 83%.

As to `CC(C)(C(=O)N[C@@H]1[C@@H]2C[C@@H]3C[C@H]1C[C@@](C(=O)O)(C3)C2)c1ccccc1` [C, E-4-(2-Methyl-2-phenyl-propionylamino)-adamantane-1-carboxylic acid], the values for the IC50 (on human 11-β-HSD-2; in series [1]) were above 10000 nM and 82 nM, respectively. For the same compound, in series [2], the “Mouse Liver Microsomal Turnover (%)” value was 0%. Moreover, the “Human Liver Microsomal Turnover (%)” value in series [3] is 0%.
